# According to patent US8574563B2 (Bristol-Myers Squibb Company, priority 2006, dated 2013):
# pEC50: −log10 of the molar value.
# System: HCV 1b-377-neo replicon cells
# Experiment: HCV replicon assay, HCV 1b-377-neo replicon cells (1b FRET)
# Format: cell-based, Hepatitis C virus genotype 1b
# Details: HCV 1b-377-neo replicon cells; HCV 1b genotype; read-out: EC50 range against HCV 1b (Table 2, Range)
# In short: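 Compounds were tested in genotype 1b subgenomic replicon cells carrying a neomycin marker, alongside a matched replicon line with an NS5A Y2065H substitution that confers resistance to a reference NS5A inhibitor.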
row,SMILES,pEC50
1,CCN(CC)[C@@H](C(=O)N1CCC[C@H]1c1ncc(-c2ccc(-c3ccc(-c4cnc([C@@H]5CCCN5C(=O)[C@@H](NC(=O)OC)C(C)C)[nH]4)cc3)cc2)[nH]1)C(C)(C)C [Example M91x],7.00 to 9.00
2,"CC[C@@H](NC(=O)OC)C(=O)N1CCC[C@H]1c1ncc(-c2ccc(-c3ccc(-c4cnc([C@@H]5CCCN5C(=O)[C@@H](c5ccccc5)N(CC)CC)[nH]4)cc3)cc2)[nH]1 [Example M54, methyl ((1R)-1-(((2S)-2-(5-(4′-(2-((2S)-1-((2R)-2-(diethylamino)-2-phenylacetyl)-2-pyrrolidinyl)-1H-imidazol-5-yl)-4-biphenylyl)-1H-imidazol-2-yl)-1 pyrrolidinyl)carbonyl)propyl) carbamate]",7.00 to 9.00

# Same assay, conditions: Hepatitis C virus, HCV 1b-377-neo replicon cells; HCV 1b genotype; read-out: EC50 range against HCV 1b (Table 2, Range)
row,SMILES,pEC50
1,"CC(C)[C@@H](O)C(=O)N1[C@@H](C)CC[C@H]1c1nc(-c2ccc(-c3ccc(-c4c[nH]c([C@@H]5CC[C@H](C)N5C(=O)[C@H](O)C(C)C)n4)cc3)cc2)c[nH]1 [Example M160, (2R,2′R)-1,1′-(4,4′-biphenyldiylbis(1H-imidazole-4,2-diyl((2S,5S)-5-methyl-2,1-pyrrolidinediyl)))bis(3-methyl-1-oxo-2-butanol)]",7.00 to 9.00
2,"COC(=O)N[C@@H](C(=O)N1CCC[C@H]1c1ncc(-c2ccc(-c3ccc(-c4cnc([C@@H]5CCCN5C(=O)[C@H](C)N)[nH]4)cc3)cc2)[nH]1)c1ccccc1 [Example 84, methyl ((1R)-2-((2S)-2-(5-(4′-(2-((2S)-1-L-alanyl-2-pyrrolidinyl)-1H-imidazol-5-yl)-4-biphenylyl)-1H-imidazol-2-yl)-1-pyrrolidinyl)-2-oxo-1-phenylethyl)carbamate]",9.00 to 12.00
3,"COC(=O)N[C@@H](C(=O)N1CCC[C@H]1c1ncc(-c2ccc(-c3ccc(-c4cnc([C@@H]5CCCN5C(=O)CN(C)C)[nH]4)cc3)cc2)[nH]1)c1ccccc1 [Example 37, methyl ((1R)-2-((2S)-2-(5-(4′-(2-((2S)-1-(N,N-dimethylglycyl)-2-pyrrolidinyl)-1H-imidazol-5-yl)-4-biphenylyl)-1H-imidazol-2-yl)-1-pyrrolidinyl)-2-oxo-1-phenylethyl)carbamate]",9.00 to 12.00
4,"COC(=O)N[C@@H](C(=O)N[C@@H](C)c1ncc(-c2ccc(-c3cnc(-c4cnc([C@@H]5CCCN5C(=O)[C@H](NC(=O)OC)c5ccccc5)[nH]4)cn3)cc2)[nH]1)c1ccccc1 [Example 152j-28, methyl ((1R)-2-((2S)-2-(5-(5-(4-(2-((1S)-1-(((2R)-2-((methoxycarbonyl)amino)-2-phenylacetyl)amino)ethyl)-1H-imidazol-5-yl)phenyl)-2-pyrazinyl)-1H-imidazol-2-yl)-1-pyrrolidinyl)-2-oxo-1-phenylethyl)carbamate]",9.00 to 12.00
5,"CCN(CC)[C@@H](C(=O)N1CCC[C@H]1c1ncc(-c2ccc(-c3ccc(-c4cnc([C@@H]5CCCN5C(=O)c5ncco5)[nH]4)cc3)cc2)[nH]1)c1ccccc1 [Example M37, (1R)-N,N-diethyl-2-((2S)-2-(5-(4′-(2-((2S)-1-(1,3-oxazol-2-ylcarbonyl)-2-pyrrolidinyl)-1H-imidazol-5-yl)-4-biphenylyl)-1H-imidazol-2-yl)-1-pyrrolidinyl)-2-oxo-1-phenylethanamine]",7.00 to 9.00
6,"COC(=O)N[C@H](C(=O)N1CCC[C@H]1c1ncc(-c2ccc(-c3ccc(-c4cnc([C@@H]5CCCN5C(=O)[C@@H](Nc5ncccn5)C(C)C)[nH]4)cc3)cc2)[nH]1)C(C)C [cj-11, methyl ((1S)-2-methyl-1-(((2S)-2-(5-(4′-(2-((2S)-1-(N-2-pyrimidinyl-L-valyl)-2-pyrrolidinyl)-1H-imidazol-5-yl)-4-biphenylyl)-1H-imidazol-2-yl)-1-pyrrolidinyl)carbonyl)propyl)carbamate]",9.00 to 12.00
7,"COC(=O)N[C@@H](C(=O)N1CCC[C@H]1c1ncc(-c2ccc(-c3ccc(-c4cnc([C@@H]5CCCN5C(=O)CN5CCOCC5)[nH]4)cc3)cc2)[nH]1)c1ccccc1 [Example 39, methyl ((1R)-2-((2S)-2-(5-(4′-(2-((2S)-1-(4-morpholinylacetyl)-2-pyrrolidinyl)-1H-imidazol-5-yl)-4-biphenylyl)-1H-imidazol-2-yl)-1-pyrrolidinyl)-2-oxo-1-phenylethyl)carbamate]",9.00 to 12.00
8,"CN[C@@H](C(=O)N1CCC[C@H]1c1nc(-c2ccc(-c3ccc(-c4cnc([C@@H]5CCCN5C(=O)[C@H](NC)c5ccccc5)[nH]4)cc3)cc2)c[nH]1)c1ccccc1 [Example F15, (1R)-N-methyl-2-((2S)-2-(4-(4′-(2-((2S)-1-((2R)-2-(methylamino)-2-phenylacetyl)-2-pyrrolidinyl)-1H-imidazol-5-yl)-4-biphenylyl)-1H-imidazol-2-yl)-1-pyrrolidinyl)-2-oxo-1-phenylethanamine]",9.00 to 12.00
9,"COC(=O)N[C@@H](C(=O)N1CCC[C@H]1c1ncc(-c2ccc(-c3ccc(-c4cnc([C@@H]5CCCN5C(=O)C(c5cccs5)N(C)C)[nH]4)cc3)cc2)[nH]1)c1ccccc1 (stereo partly drawn) [Example 84-46, methyl ((1R)-2-((2S)-2-(5-(4′-(2-((2S)-1-((dimethylamino)(2-thienyl)acetyl)-2-pyrrolidinyl)-1H-imidazol-5-yl)-4-biphenylyl)-1H-imidazol-2-yl)-1-pyrrolidinyl)-2-oxo-1-phenylethyl)carbamate]",9.00 to 12.00
10,"COC(=O)N[C@@H](C(=O)N1CCC[C@H]1c1ncc(-c2ccc(-c3ccc(-c4cnc([C@@H]5CCCN5C(=O)C(c5ccccc5Cl)N(C)C)[nH]4)cc3)cc2)[nH]1)c1ccccc1 (stereo partly drawn) [Example 84-56, methyl ((1R)-2-((2S)-2-(5-(4′-(2-((2S)-1-((2-chlorophenyl)(dimethylamino)acetyl)-2-pyrrolidinyl)-1H-imidazol-5-yl)-4-biphenylyl)-1H-imidazol-2-yl)-1-pyrrolidinyl)-2-oxo-1-phenylethyl)carbamate]",9.00 to 12.00
11,"COC(=O)N[C@@H](C(=O)N1CCC[C@H]1c1ncc(-c2ccc(-c3ccc(-c4cnc([C@@H]5CCCN5C(=O)[C@@H]5CCCO5)[nH]4)cc3C)cc2)[nH]1)c1ccccc1 [Example 128, methyl ((1R)-2-((2S)-2-(5-(2′-methyl-4′-(2-((2S)-1-((2S)-tetrahydro-2-furanylcarbonyl)-2-pyrrolidinyl)-1H-imidazol-5-yl)-4-biphenylyl)-1H-imidazol-2-yl)-1-pyrrolidinyl)-2-oxo-1-phenylethyl)carbamate]",9.00 to 12.00
12,"CC[C@@H](O)C(=O)N1CCC[C@H]1c1ncc(-c2ccc(-c3ccc(-c4cnc([C@@H]5CCCN5C(=O)[C@H](NC(=O)OC)c5ccccc5)[nH]4)cc3)cc2)[nH]1 [Example 56, methyl ((1R)-2-((2S)-2-(5-(4′-(2-((2S)-1-((2R)-2-hydroxybutanoyl)-2-pyrrolidinyl)-1H-imidazol-5-yl)-4-biphenylyl)-1H-imidazol-2-yl)-1-pyrrolidinyl)-2-oxo-1-phenylethyl)carbamate]",9.00 to 12.00
13,"CCN(CC)[C@@H](COC)C(=O)N1CCC[C@H]1c1ncc(-c2ccc(-c3ccc(-c4cnc([C@@H]5CCCN5C(=O)[C@@H](NC(=O)OC)C(C)C)[nH]4)cc3)cc2)[nH]1 [Example M88, methyl ((1S)-1-(((2S)-2-(5-(4′-(2-((2S)-1-(N,N-diethyl-O-methyl-L-seryl)-2-pyrrolidinyl)-1H-imidazol-5-yl)-4-biphenylyl)-1H-imidazol-2-yl)-1-pyrrolidinyl)carbonyl)-2-methylpropyl)carbamate]",7.00 to 9.00
14,"COC(=O)N[C@@H](C(=O)N1CCC[C@H]1c1ncc(-c2ccc(-c3ccc(-c4cnc([C@@H]5CCCN5C(=O)[C@H](NC(=O)OC)c5ccccc5)[nH]4)cc3C)cc2)[nH]1)c1ccccc1 [Example 124, dimethyl ((2-methyl-4,4′-biphenyldiyl)bis(1H-imidazole-5,2-diyl(2S)-2,1-pyrrolidinediyl((1R)-2-oxo-1-phenyl-2,1-ethanediyl)))biscarbamate]",9.00 to 12.00
15,"COC(=O)N[C@@H](C(=O)N1CCC[C@H]1c1ncc(-c2ccc(-c3ccc(-c4cnc([C@@H]5CCCN5C(=O)[C@@H](c5ccccc5Cl)N(C)C)[nH]4)cc3)cc2)[nH]1)c1ccccc1 [Example 107-36, methyl ((1R)-2-((2S)-2-(5-(4′-(2-((2S)-1-(2R)-2-(2-chlorophenyl)-2-(dimethylamino)acetyl)-2-pyrrolidinyl)-1H-imidazol-5-yl)-4-biphenylyl)-1H-imidazol-2-yl)-1-pyrrolidinyl)-2-oxo-1-phenylethyl) carbamate]",9.00 to 12.00
16,"COC(=O)NC1CCC(C(=O)N2CCC[C@H]2c2ncc(-c3ccc(-c4ccc(-c5cnc([C@@H]6CCCN6C(=O)C6CCC(NC(=O)OC)C6)[nH]5)cc4)cc3)[nH]2)C1 (stereo in doubt) [cj-149, dimethyl (4,4′-biphenyldiylbis(1H-imidazole-5,2-diyl(2S)-2,1-pyrrolidinediylcarbonyl(1R,3S)-3,1-cyclopentanediyl))biscarbamate]",7.00 to 9.00
17,"CCN(CC)CCC(NC(=O)OC)C(=O)N1CCC[C@H]1c1ncc(-c2ccc(-c3ccc(-c4cnc([C@@H]5CCCN5C(=O)[C@H](NC(=O)OC)c5ccccc5)[nH]4)cc3)cc2)[nH]1 (stereo partly drawn) [Example M66a, methyl ((1R)-2-((2S)-2-(5-(4′-(2-((2S)-1-(4-(diethylamino)-2-((methoxycarbonyl)amino)butanoyl)-2-pyrrolidinyl)-1H-imidazol-5-yl)-4-biphenylyl)-1H-imidazol-2-yl)-1-pyrrolidinyl)-2-oxo-1-phenylethyl)carbamate]",6.00 to 7.00
18,"CCN(CC)[C@@H](C(=O)N1CCC[C@H]1c1ncc(-c2ccc(-c3ccc(-c4cnc([C@@H]5CCCN5C(=O)[C@H](Cc5cn(C)cn5)NC(=O)OC)[nH]4)cc3)cc2)[nH]1)c1ccccc1 [cj-40, methyl ((1S)-2-((2S)-2-(5-(4′-(2-((2S)-1-((2R)-2-(diethylamino)-2-phenylacetyl)-2-pyrrolidinyl)-1H-imidazol-5-yl)-4-biphenylyl)-1H-imidazol-2-yl)-1-pyrrolidinyl)-1-((1-methyl-1H-imidazol-4-yl)methyl)-2-oxoethyl)carbamate]",9.00 to 12.00
